The values that follow come from ChEMBL document CHEMBL4043162, “Synthesis of novel flavonoid alkaloids as α-glucosidase inhibitors” (Bioorg Med Chem, 2017).

One may read the IC50 as the point on the concentration scale where inhibition reaches its midpoint. Low values mean greater potency in that assay, high ones weaker potency in that assay. Broadly, the Ki is the dissociation constant of the complex between target and ligand, obtained from inhibition or displacement. A lower Ki goes with higher affinity.

Active and inactive are the calls of the source. The calls are words filed in the database; no cut-off is given here.

Biological target in one experiment: not listed separately
The experiment in a line: Inhibition of Saccharomyces cerevisiae alpha-glucosidase pre-incubated for 15 mins before p-nitrophenyl-alpha-D-glucopyranoside substrate addition and measured after 30 mins by UV spectrometry.
Take `O=C1CC(c2ccc(O)cc2)Oc2cc(O)c(C3CCCCN3)c(O)c21` (configuration not stated): the IC50 turned out to be 249 µM.

Take `CCOC(=O)N1CCN(Cc2c(O)c(CN3CCN(C(=O)OCC)CC3)c3oc(-c4ccccc4)cc(=O)c3c2O)CC1`: the concentration for half-maximal inhibition (IC50) is over 500 µM.

`O=C1CC(c2ccc(O)cc2)Oc2cc(O)c(CN3CCN(CCO)CC3)c(O)c21` (configuration not stated) yielded an IC50 of 521 µM.

Compound `O=C1CC(c2ccc(O)cc2)Oc2cc(O)c(CN3CCc4ccccc4C3)c(O)c21` (configuration not stated) had an IC50 of 23.4 µM.

`CCOC(=O)N1CCN(Cc2c(O)cc3oc(-c4ccccc4)cc(=O)c3c2O)CC1` returned an IC50 of over 500 µM.

Take `O=c1cc(-c2ccc(O)cc2)oc2cc(O)c(C3CCCCN3)c(O)c12` (configuration not stated): 293 µM corresponded to half-maximal inhibition (IC50).

`O=c1cc(-c2ccccc2)oc2c(C3CCCCN3)c(O)cc(O)c12` (configuration not stated): the half-maximal inhibitory concentration (IC50) is over 500 µM.

`COc1ccc(C2CC(=O)c3c(cc(O)c(C4CCCCN4)c3O)O2)cc1O` (configuration not stated) yielded a concentration for half-maximal inhibition (IC50) of over 500 µM.

Regarding `O=c1cc(-c2ccccc2)oc2cc(O)c(CN3CCc4ccccc4C3)c(O)c12`, the IC50 is over 500 µM.

Consider `CCN(CC)Cc1c(O)cc2oc(-c3ccccc3)cc(=O)c2c1O`, for which the IC50 stood at 217 µM.

Compound `Oc1ccc(C2CCc3c(cc(O)c(C4CCCCN4)c3O)O2)cc1` (configuration not stated) registered an IC50 of over 500 µM.

`O=c1cc(-c2ccccc2)oc2cc(O)c(C3CCCCN3)c(O)c12` (configuration not stated) had an IC50 of over 500 µM.

With `CCOC(=O)N1CCN(Cc2c(O)cc3c(c2O)C(=O)CC(c2ccc(O)cc2)O3)CC1` (configuration not stated), the IC50 came out at 65.1 µM.

For `CCOC(=O)c1ccc(N2CCN(Cc3c(O)cc4c(c3O)C(=O)CC(c3ccc(O)cc3)O4)CC2)cc1` (configuration not stated), the half-maximal inhibitory concentration (IC50) was 4.1 µM.

As to `Oc1ccc(C2CCc3c(O)cc(O)c(C4CCCCN4)c3O2)cc1` (configuration not stated), the IC50 is over 500 µM.

For the compound `O=C1c2c(cc(O)c(C3CCCCN3)c2O)OC(c2ccc(O)c(O)c2)C1O` (configuration not stated), the IC50 is over 500 µM.

`O=c1cc(-c2ccccc2)oc2cc(O)c(CN3CCN(CCO)CC3)c(O)c12` registered an IC50 of over 500 µM.

In turn, `O=c1cc(-c2ccccc2)oc2cc(O)c(CN3CCCCC3)c(O)c12` registered a concentration for half-maximal inhibition (IC50) of over 500 µM.

On to `O=c1cc(-c2ccccc2)oc2cc(O)c(CN3CCOCC3)c(O)c12`, for which the concentration for half-maximal inhibition (IC50) was over 500 µM.

Consider `O=c1cc(-c2ccccc2)oc2c(CN3CCN(CCO)CC3)c(O)cc(O)c12`, for which the concentration for half-maximal inhibition (IC50) was over 500 µM.

`O=C1CC(c2ccc(O)cc2)Oc2cc(O)c(CN3CCOCC3)c(O)c21` (configuration not stated): the IC50 turned out to be 202 µM.

Turning to `O=C1CC(c2ccc(O)cc2)Oc2cc(O)c(CN3CCCCC3)c(O)c21` (configuration not stated), the 50% inhibitory concentration (IC50) amounted to 82.8 µM.

`COc1ccc(-c2coc3c(CN4CCCCC4)c(O)ccc3c2=O)cc1` came in with an IC50 of over 500 µM.

A further experiment deals with Saccharomyces cerevisiae. The experiment in a line: Non-competitive inhibition of Saccharomyces cerevisiae alpha-glucosidase pre-incubated for 15 mins before p-nitrophenyl-alpha-D-glucopyranoside substrate addition and measured after 30 mins by UV spectrometry based Lineweaver-Burk plot.
On to `O=C1CC(c2ccc(O)cc2)Oc2cc(O)c(CN3CCc4ccccc4C3)c(O)c21` (configuration not stated), for which the inhibition entry is “Active”.

As to `CCOC(=O)c1ccc(N2CCN(Cc3c(O)cc4c(c3O)C(=O)CC(c3ccc(O)cc3)O4)CC2)cc1` (configuration not stated), the inhibition entry was “Active”.

Biological target in the next experiment: not listed separately
Kind of experiment: Non-competitive inhibition of Saccharomyces cerevisiae alpha-glucosidase pre-incubated for 15 mins before p-nitrophenyl-alpha-D-glucopyranoside substrate addition and measured after 30 mins by UV spectrometry based Dixon plot.
As for `O=C1CC(c2ccc(O)cc2)Oc2cc(O)c(CN3CCc4ccccc4C3)c(O)c21` (configuration not stated), the inhibition constant (Ki) came out at 37.8 µM.

For `CCOC(=O)c1ccc(N2CCN(Cc3c(O)cc4c(c3O)C(=O)CC(c3ccc(O)cc3)O4)CC2)cc1` (configuration not stated), the inhibitory constant (Ki) amounted to 13.2 µM.
